Reference: PubChem BioAssay (NCI)
“And” between values parts separate entries of the source, which are not always exact repeats. Equal entries are not always repeated.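 Results reflect a 48-hour exposure of cells in 96-well plates to compound at five concentrations. GI50 is the concentration that inhibits growth by half. Definition used: TGI = concentration required for complete inhibition of growth.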

Assays:
Assay in all cases: NCI tumour cell line growth inhibition, 48 h
SK-OV-3 ovarian = test system: SK-OV-3 ovarian
IGROV1 ovarian = test system: IGROV1 ovarian
SK-MEL-2 melanoma = test system: SK-MEL-2 melanoma
SNB-75 CNS = test system: SNB-75 CNS
K-562 leukemia = test system: K-562 leukemia
U251 CNS = test system: U251 CNS
786-0 renal = test system: 786-0 renal
SW-620 colon = test system: SW-620 colon
KM12 colon = test system: KM12 colon
OVCAR-3 ovarian = test system: OVCAR-3 ovarian

SMILES	TGI (SK-OV-3 ovarian)	TGI (IGROV1 ovarian) [µM]	TGI (SK-MEL-2 melanoma)	TGI (SNB-75 CNS)	TGI (K-562 leukemia) [µM]	TGI (U251 CNS) [µM]	TGI (786-0 renal)	TGI (SW-620 colon) [µM]	GI50 (SK-OV-3 ovarian) [nM]	TGI (KM12 colon) [µM]	GI50 (IGROV1 ovarian) [µM]	GI50 (SK-MEL-2 melanoma) [nM]	GI50 (SNB-75 CNS) [nM]	GI50 (K-562 leukemia) [nM]	GI50 (786-0 renal) [µM]	TGI (OVCAR-3 ovarian)	GI50 (KM12 colon) [nM]	GI50 (U251 CNS) [µM]	GI50 (SW-620 colon) [µM]	GI50 (OVCAR-3 ovarian) [µM]
COc1ccc2oc3c(OC)c(OC)c(OC)cc3c(=O)c2c1	> 100 µM	> 100	> 100 µM	84.5 µM	> 100	> 100	> 100 µM	> 100	–	–	–	–	–	–	–	–	–	–	–	–
Cc1cc(-c2c(F)cc3c4nn([C@H]5CC[C@@H](N(C)C)CC5)c(=O)c-4cn(C4CC4)c3c2F)cc(C)n1	0.141 µM and 0.708 µM	–	0.256 µM and 1.94 µM	0.19 µM and 0.54 µM	–	0.814	0.0526 µM and 0.363 µM	1.36	54.6	1.11	0.278	73.5	158	164	0.0202	2.66 µM	–	–	–	–
Cc1c(C#N)cccc1[C@@H](C)Nc1nnc(C)c2cnc(N3CCOCC3)cc12	> 100 µM	> 100	64.6 µM	> 100 µM	> 100	> 100	> 100 µM	> 100	31300	> 100	24	21100	17700	367	13.7	66.1 µM	6610	29.8	18.9	14.5
COCCOc1cc(C)cc(/C=C(C)/C=C/C2=C(C)CCCC2(C)C)n1	> 100 µM	> 100	> 100 µM	> 100 µM	–	> 100	> 100 µM	> 100	–	> 100	–	–	–	–	–	> 100 µM	–	–	–	–
NC1c2ccccc2Nc2ccccc21	23.6 µM	21.7	29.8 µM	24.4 µM	14.5	–	15.9 µM	14.4	–	17	–	–	–	–	–	28.9 µM	–	–	–	–
COc1ccc(-c2ccc(/C=N/n3c(COc4ccccc4Cl)nn(CN4CCOCC4)c3=S)o2)c([N+](=O)[O-])c1	> 100 µM	> 100	–	–	41	> 100	> 100 µM	87.1	25700	34.6	59.5	–	–	18200	34.4	52.4 µM	17100	26.1	27.4	16.7
N#Cc1ccccc1NC(=O)C(=O)C1NC(=S)NC1=O (stereo not given)	–	> 100	–	> 100 µM	> 100	> 100	> 100 µM	> 100	–	> 100	–	–	–	–	–	> 100 µM	–	–	–	–
COc1cc(/C=C/c2ccc(O)c(OC)c2)cc(OC)c1	76.9 µM	> 100	–	97 µM	> 100	> 100	> 100 µM	> 100	–	96.5	–	–	–	–	–	–	–	–	–	–
C=C1C(O)C2CC(C)(CO)C(=O)C2=C(CC(C)C)C12CC2 (stereo not given)	> 100 µM	> 100	> 100 µM	–	> 100	> 100	> 100 µM	> 100	> 100000	> 100	> 100	> 100000	–	31900	> 100	92.4 µM	50600	77	62.3	36.5
CC1=C(C(=O)Nc2ccccc2)C(c2ccccc2Cl)C(C(=O)Nc2ccccc2)=C(C)N1	80 µM	65.4	33.1 µM	76.4 µM	93.5	35.8	42.1 µM	76.2	–	–	–	–	–	–	–	40.5 µM	–	–	–	–
Cc1ccc2nc(NC(=O)C(=O)C(C#N)c3ccc(Cl)cc3)sc2c1 (stereo not given)	> 50 µM	> 50	> 50 µM	> 50 µM	–	> 50	> 50 µM	> 50	–	> 50	–	–	–	–	–	> 50 µM	–	–	–	–
CCCCCC(O)C(O)CCC[C@H](O)[C@H]1CC[C@H]([C@H]2CC[C@H]([C@H](O)CCCCCCCCCCCCC3=C[C@H](C)OC3=O)O2)O1 (stereo not given in full)	–	29.4	5.16 µM and 37.4 µM	37.9 µM	6.4	> 100	30.8 µM	> 100	–	29.1	7.46	15800	15200	–	11.1	8.38 µM and 31.6 µM	9780	8.47	7.51	12.3
CS(=O)(=O)c1ccc(Nc2nc(N[C@H]3CCCC[C@H]3N)nc3cc[nH]c(=O)c23)cc1	> 100 µM	–	–	3.51 µM	> 100	21.1	20.6 µM	8.6	3170	11.9	–	–	1290	1140	3.28	4.67 µM	491	0.664	0.627	1.3
Cc1ccc(-c2nc(/C=N/Nc3cc(C)nc4ccc(Cl)cc34)c(C)o2)cc1	3.21 µM	3.48	4.11 µM	3.2 µM	–	3.39	2.76 µM	2.07	1780	3.88	1.81	2010	1550	–	1.42	3.56 µM	1880	1.83	0.485	1.94
CN1Cc2ccccc2/C=C\c2ccccc21	> 100 µM	> 100	80.2 µM	> 100 µM	–	> 100	> 100 µM	> 100	–	> 100	–	–	–	–	–	> 100 µM	–	–	–	–
CNCCCNc1nc2ccccc2c2c(=O)c3cc(OC)ccc3sc12	–	3.03	4.44 µM	3.39 µM	5.38	3.71	3.17 µM	3.28	–	3.52	1.55	2040	1690	2000	1.66	3.43 µM	1830	1.81	1.72	1.82
C1CCCCc2nc3c(nc2CCC1)c1nc2c(nc1c1nc4c(nc31)CCCCCCCC4)CCCCCCCC2	> 100 µM	> 100	> 100 µM	> 100 µM	> 100	> 100	> 100 µM	> 100	–	> 100	–	–	–	–	–	–	–	–	–	–
Clc1ccc(-c2c3ccc(=[N+]4CCCCC4)cc-3oc3cc(N4CCCCC4)ccc23)cc1	0.715 µM	–	–	0.333 µM	0.779	–	0.226 µM	–	204	–	–	–	49.4	153	0.103	0.274 µM	–	–	–	0.132

SMILES	TGI (SK-OV-3 ovarian)	TGI (IGROV1 ovarian) [µM]	TGI (SK-MEL-2 melanoma)	TGI (SNB-75 CNS)	TGI (K-562 leukemia) [µM]	TGI (U251 CNS) [µM]	TGI (786-0 renal)	TGI (SW-620 colon) [µM]	GI50 (SK-OV-3 ovarian) [nM]	TGI (KM12 colon) [µM]	GI50 (IGROV1 ovarian) [µM]	GI50 (SK-MEL-2 melanoma) [nM]	GI50 (SNB-75 CNS) [nM]	GI50 (K-562 leukemia) [nM]	GI50 (786-0 renal) [µM]	TGI (OVCAR-3 ovarian)	GI50 (KM12 colon) [nM]	GI50 (U251 CNS) [µM]	GI50 (SW-620 colon) [µM]	GI50 (OVCAR-3 ovarian) [µM]
CCC(C)CC(C)CC(C)/C=C(\C)C1=C(C)CC(C)(O)O1 (stereo not given)	> 100 µM	> 100	–	> 100 µM	> 100	> 100	> 100 µM	> 100	–	–	–	–	–	–	–	–	–	–	–	–
COC1=CC(C2c3cc4c(cc3[C@@H](Nc3ccc(F)cc3)C3COC(=O)[C@H]23)OCO4)=CC(=O)C1=O (stereo not given in full)	23.1 µM	44	–	> 45.1 µM	> 49.2	13.7	11.4 µM	> 50.1	–	34.5	–	–	–	–	–	> 66.5 µM	–	–	–	–
Nc1nc2c(C(=O)NCc3cccs3)nnn2c2cccc(Cl)c12	> 100 µM	> 100	> 100 µM	–	> 100	> 100	> 100 µM	> 100	–	> 100	–	–	–	–	–	> 100 µM	–	–	–	–
C#C[C@@]1(O)[C@@H](CO)O[C@@H](n2cc(I)c3c(N)ncnc32)[C@@H]1O	0.729 µM	–	1.76 µM	1.99 µM	> 100	> 32	3.24 µM	> 100	34.3	> 100	–	239	457	64	0.334	–	96.2	0.0734	0.0581	–
C#CC1=CC(=O)C(OC)=CC1=O	> 100 µM	–	33.7 µM	18.5 µM	> 100	> 100	20.1 µM	40	–	> 100	–	–	–	–	–	> 100 µM	–	–	–	–
[N-]=[N+]=NCCCn1c2c(c3ccc([N+](=O)[O-])cc3c1=O)C(=O)c1cc(Br)ccc1-2	> 100 µM	> 100	> 100 µM	–	> 100	> 100	> 100 µM	–	> 100000	> 100	> 100	> 100000	–	> 100000	42.4	> 100 µM	> 100000	45.8	–	> 100
CC(C)c1cc(C(C)C)c(S(=O)(=O)N=[N+]=[N-])c(C(C)C)c1	> 100 µM	> 100	–	> 100 µM	> 100	> 100	> 100 µM	> 100	–	> 100	–	–	–	–	–	> 100 µM	–	–	–	–
Cc1ccc(C)c(N2C(=O)C(=O)C(c3nc4ccccc4o3)C(=O)C2=O)c1	> 100 µM	> 100	> 100 µM	> 100 µM	–	> 100	> 100 µM	> 100	–	> 100	–	–	–	–	–	> 100 µM	–	–	–	–
CC1=C(SC#N)S(=O)(=O)N(c2ccccc2)C(C)=C1SC#N	89.9 µM	> 100	> 100 µM	63.9 µM	66	35.4	> 100 µM	> 100	–	> 100	–	–	–	–	–	–	–	–	–	–
COc1ccc(-c2cncn2-c2cc(OC)c(OC)c(OC)c2)cc1	> 86.5 µM	1.53	> 100 µM	–	> 100	> 46.4	43.7 µM	> 100	256	1.53	< 0.0157	45	–	443	0.115	0.0641 µM	22.4	0.412	0.0585	0.0282
O=C(NNc1ccc(Cl)cc1)C1CCC(CNS(=O)(=O)c2ccccc2Cl)CC1 (stereo not given)	–	> 100	> 100 µM	–	5.73	–	34 µM	> 100	–	99.4	42.5	30900	–	1960	13.7	39.8 µM	4370	–	40.6	8.68
CS(=O)(=O)Nc1cccc(-c2ccc3ncnc(Nc4ccc(F)c(Cl)c4)c3c2)c1	1.38 µM	5.41	4.15 µM	> 30.2 µM	5.62	3.34	3.76 µM	–	233	8.3	1.09	1980	4320	1980	1.71	6.27 µM	2500	1.55	–	1.6
CC(=O)OC12C=C(C)C(C(C)C1)C1C(=O)N(CCN3CCCCC3)C(=O)C12 (stereo not given)	> 50 µM	> 50	> 50 µM	> 50 µM	> 50	> 50	> 50 µM	> 50	> 50000	> 50	> 50	> 50000	> 50000	> 50000	> 50	–	> 50000	> 50	> 50	–
N#CC(C(=O)CCCC(=O)Nc1ccc(Cl)cc1Cl)c1ccccc1 (stereo not given)	> 100 µM	> 100	> 100 µM	–	> 100	> 100	> 100 µM	> 100	–	> 100	–	–	–	–	–	> 100 µM	–	–	–	–
CCOC(=O)c1cc(-c2ccc(-c3cc(C(=O)OCC)c(C#N)c(N)c3C#N)cc2)c(C#N)c(N)c1C#N	> 100 µM	> 100	> 100 µM	–	> 100	> 100	> 100 µM	> 100	–	> 100	–	–	–	–	–	> 100 µM	–	–	–	–
CCOC(=O)/C(=C/c1cccc(Cl)c1)N(CC)CC	> 100 µM	> 100	68.5 µM	> 100 µM	> 100	> 100	> 100 µM	> 100	–	> 100	–	–	–	–	–	–	–	–	–	–
O=C(CN(/C=C/C(=O)C(F)(F)F)c1ccc(Cl)cc1)c1ccc(Cl)c(Cl)c1	35.2 µM	22.1	20.7 µM	31.6 µM	–	16.8	24.5 µM	30.5	17100	10.8	6.8	7150	13600	–	11.5	11.3 µM	2620	5.37	13.2	3.23
CCOC(=O)C(Cc1ccc(N(CCCl)CCCl)cc1)NC(=O)C(Cc1ccccc1)NC=O (stereo not given)	0.634 µM	0.222	0.989 µM	–	0.365	0.499	0.303 µM	0.414	–	0.638	–	–	–	–	–	0.29 µM	–	–	–	–
